Results reported in patent US9012635B2, “Pyridone amides and analogs exhibiting anti-cancer and anti-proliferative activities” (Deciphera Pharmaceuticals, LLC, priority 2013, dated 2015).
Where a name gives a salt, the structure may show the parent alone.

Assays:
[1] = molecular target: KDR kinase (Seq ID No. 3) (Homo sapiens, UniProt P35968, DEL940-989/E990V); test: KDR kinase assay (assays K1, K2, K3); format: biochemical; details: enzymatic assay; variant K1, K2 or K3 not given
Experimental: The activity of KDR kinase was determined by following the production of ADP from the kinase reaction through coupling with the pyruvate kinase/lactate dehydrogenase system (e.g., Schindler et al. Science 2000, 289, pp. 1938-1942). In this assay, the oxidation of NADH (thus the decrease at A340 nm) was continuously monitored spectrophotometrically. The reaction mixture (100 μl) contained KDR (Seq ID No. 3, 1.5 nM to 7.1 nM, nominal concentration), polyE4Y (1 mg/mL), pyruvate kinase (3.5 units), lactate dehydrogenase (5.5 units), phosphoenolpyruvate (1 mM), and NADH (0.28 mM) in 60 mM Tris buffer containing 0.13% octyl-glucoside, 13 mM MgCl2, 6.8 mM DTT, test compound, and 3.5% DMSO at pH 7.5. The reaction was initiated by adding ATP (0.2 mM, final concentration). The absorption at 340 nm was continuously monitored for 3 h at 30° C. on a Polarstar Optima plate reader (BMG) or instrument of similar capacity. The reaction rate was calculated using the 1 h to 2 h time frame. Percent inhibition was obtained by comparison of reaction rate with that of a control (i.e., with no test compound). IC50 values were calculated from a series of percent inhibition values determined at a range of inhibitor concentrations using software routines as implemented in the GraphPad Prism software package.
KDR kinase assay K2 is the same as for assay K1 except that (1) a nominal concentration of 2.1 nM of enzyme was employed (2) the reaction was pre-incubated with test compound at 30° C. for 2 h prior to initiation with ATP and (3) 1.0 mM ATP (final concentration) was used to initiate the reaction.
KDR kinase assay K3 is the same as for assay K1 except that (1) a nominal concentration of 1.1 nM of enzyme was employed, (2) the buffer components per 100 μl reaction mixture were as follows: 75 mM Tris buffer containing 0.066% octyl-glucoside, 17 mM MgCl2, and 1% DMSO at pH 7.5, (3) the final concentration of DTT was 0.66 mM, (4) the reaction was pre-incubated with test compound at 30° C. for 1 h prior to initiation with ATP, and (5) 1.0 mM ATP (final concentration) was used to initiate the reaction.

[2] = test system: MKN-45 cells; test: MKN-45 cell proliferation assay (resazurin); format: cell-based; details: Homo sapiens, 67 h + 5 h resazurin
Experimental: (§1) MKN-45 cells (catalog #JCRB0254) were obtained from the Japan Health Science Research Resources Bank, Osaka, Japan. Briefly, cells were grown in RPMI 1640 media supplemented with 10% characterized fetal bovine serum (Invitrogen, Carlsbad, Calif.) at 37° C., 5% CO2, 95% humidity. Cells were allowed to expand until reaching 70-95% confluency at which point they were subcultured or harvested for assay use.
(§2) A serial dilution of test compound was dispensed into a 96-well black clear bottom plate (Corning, Corning, N.Y.). Five thousand cells were added per well in 200 μL complete growth medium. Plates were incubated for 67 hours at 37° C., 5% CO2, 95% humidity. At the end of the incubation period 40 μL of a 440 μM solution of resazurin (Sigma, St. Louis, Mo.) in PBS was added to each well and plates were incubated for an additional 5 h at 37° C., 5% CO2, 95% humidity. Plates were read on a Synergy2 reader (Biotek, Winooski, Vt.) using an excitation of 540 nm and an emission of 600 nm. Data was analyzed using Prism software (GraphPad, San Diego, Calif.) to calculate IC50 values.

[3] = molecular target: T1, c-KIT kinase (Seq. ID No. 1) (Homo sapiens, UniProt P10721); test: c-KIT kinase assay (pyruvate kinase/lactate dehydrogenase coupled, A340); format: biochemical; details: enzymatic assay, ATP 200 μM; read-out: cKIT
T1 construct: c-KIT (cKIT residues T544-V976, from ProQinase, 5.4 nM); purchased ProQinase
Experimental: Activity of c-KIT kinase (Seq. ID No. 1) was determined by following the production of ADP from the kinase reaction through coupling with the pyruvate kinase/lactate dehydrogenase system (e.g., Schindler et al. Science 2000, 289, pp. 1938-1942). In this assay, the oxidation of NADH (thus the decrease at A340 nm) was continuously monitored spectrophotometrically. The reaction mixture (100 μl) contained c-KIT (cKIT residues T544-V976, from ProQinase, 5.4 nM), polyE4Y (1 mg/mL), MgCl2 (10 mM), pyruvate kinase (4 units), lactate dehydrogenase (0.7 units), phosphoenol pyruvate (1 mM), and NADH (0.28 mM) in 90 mM Tris buffer containing 0.2% octyl-glucoside and 1% DMSO, pH 7.5. Test compounds were incubated with c-KIT (Seq. ID No. 1) and other reaction reagents at 22° C. for less than 2 min before ATP (200 μM) was added to start the reaction. The absorption at 340 nm was monitored continuously for 0.5 hours at 30° C. on Polarstar Optima plate reader (BMG). The reaction rate was calculated using the 0 to 0.5 h time frame. Percent inhibition was obtained by comparison of reaction rate with that of a control (i.e., with no test compound). IC50 values were calculated from a series of percent inhibition values determined at a range of inhibitor concentrations using software routines as implemented in the GraphPad Prism software package.

[4] = test system: EBC-1 cells; test: EBC-1 cell proliferation assay (resazurin); format: cell-based; details: Homo sapiens, 67 h + 5 h resazurin, read-out: EBC1 Proliferation
Experimental: as §1, with “EBC-1” for “MKN-45”, “#JCRB0820)” for “#JCRB0254)”, “DMEM” for “RPMI 1640 media”
as §2, with “N.Y.). For each cell line, five” for “N.Y.). Five”, “and” for “and plates were”, “5 hours” for “5 h”

[5] = molecular target: T2, c-MET kinase (Seq. ID No. 2) (Homo sapiens, UniProt P08581); test: c-MET kinase assay (pyruvate kinase/lactate dehydrogenase coupled, A340); format: biochemical; details: enzymatic assay, 0.5 h pre-incubation, ATP 100 μM; read-out: cMET
T2 construct: c-MET (c-MET residues: 956-1390, from Invitrogen, catalogue #PV3143, 6 nM); purchased Invitrogen PV3143
Experimental: Activity of c-MET kinase (Seq. ID No. 2) was determined by following the production of ADP from the kinase reaction through coupling with the pyruvate kinase/lactate dehydrogenase system (e.g., Schindler et al. Science 2000, 289, pp. 1938-1942). In this assay, the oxidation of NADH (thus the decrease at A340 nm) was continuously monitored spectrophotometrically. The reaction mixture (100 μl) contained c-MET (c-MET residues: 956-1390, from Invitrogen, catalogue #PV3143, 6 nM), polyE4Y (1 mg/mL), MgCl2 (10 mM), pyruvate kinase (4 units), lactate dehydrogenase (0.7 units), phosphoenol pyruvate (1 mM), and NADH (0.28 mM) in 90 mM Tris buffer containing 0.25 mM DTT, 0.2% octyl-glucoside and 1% DMSO, pH 7.5. Test compounds were incubated with c-MET (Seq. ID No. 2) and other reaction reagents at 22° C. for 0.5 h before ATP (100 μM) was added to start the reaction. The absorption at 340 nm was monitored continuously for 2 hours at 30° C. on Polarstar Optima plate reader (BMG). The reaction rate was calculated using the 1.0 to 2.0 h time frame. Percent inhibition was obtained by comparison of reaction rate with that of a control (i.e., with no test compound). IC50 values were calculated from a series of percent inhibition values determined at a range of inhibitor concentrations using software routines as implemented in the GraphPad Prism software package.

T1 sequence (P10721 with tags, fused parts or gaps): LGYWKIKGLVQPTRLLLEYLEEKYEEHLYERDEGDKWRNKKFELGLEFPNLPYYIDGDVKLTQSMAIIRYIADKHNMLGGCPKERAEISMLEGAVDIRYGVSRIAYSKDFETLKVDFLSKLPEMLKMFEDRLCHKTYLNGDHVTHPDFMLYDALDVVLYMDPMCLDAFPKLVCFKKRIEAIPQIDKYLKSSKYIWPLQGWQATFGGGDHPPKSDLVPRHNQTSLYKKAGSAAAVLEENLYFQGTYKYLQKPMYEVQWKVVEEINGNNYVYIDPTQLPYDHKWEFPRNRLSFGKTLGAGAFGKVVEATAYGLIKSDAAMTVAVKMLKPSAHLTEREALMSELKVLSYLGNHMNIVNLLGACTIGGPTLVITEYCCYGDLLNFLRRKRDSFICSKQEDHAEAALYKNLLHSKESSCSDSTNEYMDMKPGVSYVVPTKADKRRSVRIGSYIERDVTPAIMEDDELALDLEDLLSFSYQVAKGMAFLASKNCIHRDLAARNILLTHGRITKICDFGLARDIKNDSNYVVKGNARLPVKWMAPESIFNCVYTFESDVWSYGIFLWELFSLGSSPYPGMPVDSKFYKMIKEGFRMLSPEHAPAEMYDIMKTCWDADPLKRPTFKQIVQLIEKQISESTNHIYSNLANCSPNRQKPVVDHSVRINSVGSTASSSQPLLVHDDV
T2 sequence (P08581 with tags, fused parts or gaps): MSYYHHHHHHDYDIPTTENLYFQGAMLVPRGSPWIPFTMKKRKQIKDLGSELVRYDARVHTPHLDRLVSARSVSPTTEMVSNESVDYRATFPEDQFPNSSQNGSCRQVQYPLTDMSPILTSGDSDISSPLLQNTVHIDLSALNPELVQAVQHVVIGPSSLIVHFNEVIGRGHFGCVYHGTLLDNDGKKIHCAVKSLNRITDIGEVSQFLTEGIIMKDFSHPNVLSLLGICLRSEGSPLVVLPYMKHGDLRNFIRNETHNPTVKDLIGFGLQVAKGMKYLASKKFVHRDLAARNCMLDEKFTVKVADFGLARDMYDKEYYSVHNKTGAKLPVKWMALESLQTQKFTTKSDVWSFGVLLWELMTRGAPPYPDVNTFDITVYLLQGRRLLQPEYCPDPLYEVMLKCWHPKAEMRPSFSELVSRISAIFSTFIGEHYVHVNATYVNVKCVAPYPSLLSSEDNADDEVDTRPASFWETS
KDR kinase (Seq ID No. 3), sequence (P35968 with tags, fused parts or gaps DEL940-989/E990V): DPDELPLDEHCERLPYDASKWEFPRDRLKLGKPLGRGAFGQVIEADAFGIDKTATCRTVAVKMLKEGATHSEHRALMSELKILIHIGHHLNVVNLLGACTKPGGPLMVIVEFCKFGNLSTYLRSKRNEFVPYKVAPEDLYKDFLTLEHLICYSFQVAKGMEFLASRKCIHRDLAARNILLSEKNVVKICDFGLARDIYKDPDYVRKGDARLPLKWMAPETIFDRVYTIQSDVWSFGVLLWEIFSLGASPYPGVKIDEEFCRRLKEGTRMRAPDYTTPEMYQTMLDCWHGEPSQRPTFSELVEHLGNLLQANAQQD

Row | IC50 [1] | IC50 [2] | IC50 [3] | IC50 [5] | Compound | IC50 [4]
1 | > 1000 nM | 100 to 1000 nM | > 1000 nM | ≤ 100 nM | CCOc1ccn(-c2ccc(F)cc2)c(=O)c1C(=O)Nc1cc(F)c(Oc2ccnc(-c3cn[nH]c3)c2)cc1F [Example 8, N-(4-((2-(1H-pyrazol-4-yl)pyridin-4-yl)oxy)-2,5-difluorophenyl)-4-ethoxy-1-(4-fluorophenyl)-2-oxo-1,2-dihydropyridine-3-carboxamide hydrochloride] | 100 to 1000 nM
2 | > 1000 nM | ≤ 100 nM | > 1000 nM | ≤ 100 nM | CCOc1ccn(-c2ccc(F)cc2)c(=O)c1C(=O)Nc1cc(F)c(Oc2ccnc(-c3cnn(CC)c3)c2)cc1F [Example 7, 4-ethoxy-N-(4-((2-(1-ethyl-1H-pyrazol-4-yl)pyridin-4-yl)oxy)-2,5-difluorophenyl)-1-(4-fluorophenyl)-2-oxo-1,2-dihydropyridine-3-carboxamide] | ≤ 100 nM
3 | > 1000 nM | – | ≤ 100 nM | ≤ 100 nM | Cn1cc(C(=O)Nc2cc(F)c(Oc3ccnc(-c4cnn(C)c4)c3)cc2F)c(=O)c(-c2ccc(F)cc2)c1 [Example 9, N-(2,5-difluoro-4-((2-(1-methyl-1H-pyrazol-4-yl)pyridin-4-yl)oxy)phenyl)-5-(4-fluorophenyl)-1-methyl-4-oxo-1,4-dihydropyridine-3-carboxamide] | –
4 | > 1000 nM | > 1000 nM | 100 to 1000 nM | ≤ 100 nM | CNc1ccn(-c2ccc(F)cc2)c(=O)c1C(=O)Nc1cc(F)c(Oc2ccnc(-c3cnn(C)c3)c2)cc1F [Example 4, N-(2,5-difluoro-4-((2-(1-methyl-1H-pyrazol-4-yl)pyridin-4-yl)oxy)phenyl)-1-(4-fluorophenyl)-4-(methylamino)-2-oxo-1,2-dihydropyridine-3-carboxamide] | 100 to 1000 nM
5 | > 1000 nM | 100 to 1000 nM | > 1000 nM | ≤ 100 nM | CCOc1ccn(-c2ccc(F)cc2)c(=O)c1C(=O)Nc1cc(F)c(Oc2ccnc(-c3cnn(C(C)C)c3)c2)cc1F [Example 6, N-(2,5-difluoro-4-((2-(1-isopropyl-1H-pyrazol-4-yl)pyridin-4-yl)oxy)phenyl)-4-ethoxy-1-(4-fluorophenyl)-2-oxo-1,2-dihydropyridine-3-carboxamide] | 100 to 1000 nM
6 | 100 to 1000 nM | – | ≤ 100 nM | ≤ 100 nM | Cn1cc(-c2cc(Oc3cc(F)c(NC(=O)c4c[nH]cc(-c5ccc(F)cc5)c4=O)cc3F)ccn2)cn1 [Example 10, N-(2,5-difluoro-4-((2-(1-methyl-1H-pyrazol-4-yl)pyridin-4-yl)oxy)phenyl)-5-(4-fluorophenyl)-4-oxo-1,4-dihydropyridine-3-carboxamide] | –
